Test results as given in ChEMBL document CHEMBL5042477, “Potent Cyclic Peptide Inhibitors of FXIIa Discovered by mRNA Display with Genetic Code Reprogramming” (J Med Chem, 2021).
Active and inactive are the calls of the source. The rule behind the calls is not given here. Where a SMILES comes first, the peptide text is derived from it. Bridges are numbered along the chain shown (N, C = ends).

Columns and labels:
[1] = molecular target: T1, Coagulation factor XII (Homo sapiens) (UniProt P00748); assay: Inhibition of human factor 12a using H-D-Pro-Phe-Arg-p-nitroanilide as chromogenic substrate assessed as liberation of p-nitroaniline at 2 mM measured every 5 mins for 60 min by multimode plate reader analysis
T1 sequence (whole entry): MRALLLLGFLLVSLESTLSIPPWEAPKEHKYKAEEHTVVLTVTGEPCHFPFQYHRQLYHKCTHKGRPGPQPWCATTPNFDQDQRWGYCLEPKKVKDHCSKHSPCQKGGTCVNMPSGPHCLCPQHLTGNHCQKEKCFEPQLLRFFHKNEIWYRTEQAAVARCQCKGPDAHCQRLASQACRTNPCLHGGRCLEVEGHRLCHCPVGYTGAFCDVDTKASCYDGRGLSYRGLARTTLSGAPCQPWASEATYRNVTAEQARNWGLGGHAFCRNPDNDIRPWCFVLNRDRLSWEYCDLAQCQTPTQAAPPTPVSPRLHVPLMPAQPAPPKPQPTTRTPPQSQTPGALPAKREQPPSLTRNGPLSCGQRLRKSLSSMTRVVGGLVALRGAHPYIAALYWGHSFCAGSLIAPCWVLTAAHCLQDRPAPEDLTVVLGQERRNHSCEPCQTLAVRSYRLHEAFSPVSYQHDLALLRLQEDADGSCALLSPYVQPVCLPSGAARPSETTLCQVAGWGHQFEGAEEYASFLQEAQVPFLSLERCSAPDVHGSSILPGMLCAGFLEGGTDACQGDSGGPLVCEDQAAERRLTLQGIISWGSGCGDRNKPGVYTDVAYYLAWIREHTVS

Homo sapiens = species: Homo sapiens; assay: Selectivity index, ratio of IC50 for inhibition of human factor 12a using H-D-Pro-Phe-Arg-p-nitroanilide as chromogenic substrate to IC50 for inhibition of human factor 10a using methoxycarbonyl-D-Nle-Gly-Arg-pNA as substrate
Coagulation factor XII [2] = molecular target: T2, Coagulation factor XII (Homo sapiens, UniProt P00748); assay: Inhibition of human factor 12a using H-D-Pro-Phe-Arg-p-nitroanilide as chromogenic substrate assessed as liberation of p-nitroaniline in presence of BSA measured every 5 mins for 60 min by multimode plate reader analysis
T2 sequence (P00748 whole entry): T1 sequence (whole entry)

Plasma [3] = assay: Anticoagulant activity in pooled human plasma assessed as prolongation of prothrombin time at 12.5 uM incubated for 7 mins; type: functional, cell-free
Plasma [4] = assay: Anticoagulant activity in pooled human plasma assessed as prolongation of activated partial thromboplastin time at 12.5 uM incubated for 7 mins; type: functional, cell-free
Coagulation factor XII [5] = molecular target: T2, Coagulation factor XII; assay: Inhibition of human factor 12a using H-D-Pro-Phe-Arg-p-nitroanilide as chromogenic substrate assessed as liberation of p-nitroaniline measured every 5 mins for 60 min by multimode plate reader analysis
Coagulation factor X = Coagulation factor X (Homo sapiens, UniProt P00742); assay: Inhibition of human factor 10a using methoxycarbonyl-D-Nle-Gly-Arg-pNA as substrate measured after 60 mins by microplate reader analysis
Coagulation factor X, sequence (P00742 41-179 limits assumed): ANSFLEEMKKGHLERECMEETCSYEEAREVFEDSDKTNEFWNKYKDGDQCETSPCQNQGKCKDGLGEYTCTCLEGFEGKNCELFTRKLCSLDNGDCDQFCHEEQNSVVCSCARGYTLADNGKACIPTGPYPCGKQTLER
Coagulation factor X, sequence (P00742 235-488 limits assumed): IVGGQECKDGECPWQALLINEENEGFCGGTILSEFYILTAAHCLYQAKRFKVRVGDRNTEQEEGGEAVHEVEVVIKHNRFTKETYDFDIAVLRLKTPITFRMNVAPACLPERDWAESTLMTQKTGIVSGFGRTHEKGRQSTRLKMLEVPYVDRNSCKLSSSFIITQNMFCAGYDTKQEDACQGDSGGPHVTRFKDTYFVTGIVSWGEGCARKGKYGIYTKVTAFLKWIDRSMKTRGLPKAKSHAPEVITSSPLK

Plasma [6] = assay: Anticoagulant activity in FXII-deficient human plasma assessed as effect on total thrombin generation using Z-GGR-AMC as fluorogenic substrate at 8 uM by calibrated automated thrombogram analysis; type: functional, cell-free
Plasma [7] = assay: Anticoagulant activity in pooled human plasma assessed as reduction in ellagic acid induced thrombin generation using Z-GGR-AMC as fluorogenic substrate by calibrated automated thrombogram analysis; type: functional, cell-free
Plasma kallikrein = Plasma kallikrein (Homo sapiens, UniProt P03952); assay: Inhibition of plasma kallikrein (unknown origin); type: cell-free
Plasma kallikrein, sequence (P03952 20-390 limits assumed): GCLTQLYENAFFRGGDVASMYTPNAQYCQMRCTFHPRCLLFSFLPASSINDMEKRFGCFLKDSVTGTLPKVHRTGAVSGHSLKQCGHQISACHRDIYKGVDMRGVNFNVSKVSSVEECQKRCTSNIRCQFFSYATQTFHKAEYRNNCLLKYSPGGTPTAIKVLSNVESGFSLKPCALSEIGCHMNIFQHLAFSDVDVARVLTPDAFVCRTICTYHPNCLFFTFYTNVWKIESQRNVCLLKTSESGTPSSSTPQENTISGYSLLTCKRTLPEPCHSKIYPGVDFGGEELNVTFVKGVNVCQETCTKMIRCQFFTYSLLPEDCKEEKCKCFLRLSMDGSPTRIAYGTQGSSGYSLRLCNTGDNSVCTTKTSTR
Plasma kallikrein, sequence (P03952 391-638 limits assumed): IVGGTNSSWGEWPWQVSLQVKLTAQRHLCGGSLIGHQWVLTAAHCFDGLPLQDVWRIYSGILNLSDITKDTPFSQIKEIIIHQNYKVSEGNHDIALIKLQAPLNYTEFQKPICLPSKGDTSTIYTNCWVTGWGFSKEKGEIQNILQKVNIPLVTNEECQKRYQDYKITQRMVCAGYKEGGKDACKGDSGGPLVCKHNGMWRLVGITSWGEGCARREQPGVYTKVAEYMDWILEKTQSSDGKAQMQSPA

[8] = molecular target: T1, Coagulation factor XII (Homo sapiens); assay: Inhibition of human factor 12a activation in citrated pooled human plasma assessed as inhibition of bradykinin release incubated for 10 mins followed by kaolin addition and measured after 15 mins by ELISA; type: cell-free; conditions: dose 1-200 µM, time 25.0 min
Trypsin = Trypsin (Homo sapiens, UniProt P07477+P07478+P35030); assay: Inhibition of trypsin (unknown origin); type: protein assay
[9] = molecular target: Urokinase-type plasminogen activator (Homo sapiens, UniProt P00749); assay: Inhibition of Urokinase-type plasminogen activator (unknown origin)
Coagulation factor VII = molecular target: T3, Coagulation factor VII (Homo sapiens, UniProt P08709); assay: Inhibition of factor 7a (unknown origin)
T3 sequence (P08709 whole entry): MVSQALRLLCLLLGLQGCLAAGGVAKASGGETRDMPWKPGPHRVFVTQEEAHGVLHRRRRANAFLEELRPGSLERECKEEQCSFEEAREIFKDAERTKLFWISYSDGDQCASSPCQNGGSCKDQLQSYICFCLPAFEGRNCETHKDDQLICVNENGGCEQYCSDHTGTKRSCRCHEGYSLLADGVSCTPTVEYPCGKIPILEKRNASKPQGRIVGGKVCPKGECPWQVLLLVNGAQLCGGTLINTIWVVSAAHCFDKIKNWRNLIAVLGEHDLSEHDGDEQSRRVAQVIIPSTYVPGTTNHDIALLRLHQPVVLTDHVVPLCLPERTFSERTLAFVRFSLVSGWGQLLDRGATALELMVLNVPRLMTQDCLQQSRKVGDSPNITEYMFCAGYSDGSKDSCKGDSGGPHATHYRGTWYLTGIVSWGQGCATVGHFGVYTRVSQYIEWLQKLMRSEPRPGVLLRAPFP

[10] = Stability in pooled human plasma measured upto 24 hrs by UPLC-MS analysis; type: ADME, cell-free
Plasminogen = Plasminogen (Homo sapiens, UniProt P00747); assay: Inhibition of plasmin (unknown origin)
Plasminogen, sequence (P00747 97-580 limits assumed): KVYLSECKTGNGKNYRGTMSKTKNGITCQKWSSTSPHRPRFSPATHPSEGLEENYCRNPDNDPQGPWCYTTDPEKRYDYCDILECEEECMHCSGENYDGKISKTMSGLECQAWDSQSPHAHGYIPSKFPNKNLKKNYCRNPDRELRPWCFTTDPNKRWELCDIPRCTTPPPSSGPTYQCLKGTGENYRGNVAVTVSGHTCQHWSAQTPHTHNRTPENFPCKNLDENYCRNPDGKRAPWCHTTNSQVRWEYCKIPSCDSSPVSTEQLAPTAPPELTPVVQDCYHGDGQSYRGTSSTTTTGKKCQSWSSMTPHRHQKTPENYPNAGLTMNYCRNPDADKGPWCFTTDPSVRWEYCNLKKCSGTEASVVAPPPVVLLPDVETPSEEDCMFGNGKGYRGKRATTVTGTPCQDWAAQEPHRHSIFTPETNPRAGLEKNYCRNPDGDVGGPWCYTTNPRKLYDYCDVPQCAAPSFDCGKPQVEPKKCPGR
Plasminogen, sequence (P00747 581-810 limits assumed): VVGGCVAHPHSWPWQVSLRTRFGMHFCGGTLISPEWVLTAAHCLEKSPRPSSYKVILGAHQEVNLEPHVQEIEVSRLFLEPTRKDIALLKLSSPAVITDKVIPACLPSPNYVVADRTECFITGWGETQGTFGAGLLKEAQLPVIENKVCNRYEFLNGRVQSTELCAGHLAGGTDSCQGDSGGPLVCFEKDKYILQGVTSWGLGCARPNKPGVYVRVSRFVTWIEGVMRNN

[11] = molecular target: T1, Coagulation factor XII (Homo sapiens); assay: Inhibition of human factor 12a using H-D-Pro-Phe-Arg-p-nitroanilide as chromogenic substrate assessed as liberation of p-nitroaniline at […] measured every 5 mins for 60 min by multimode plate reader analysis
Plasma [12] = assay: Anticoagulant activity in pooled human plasma assessed as prolongation of activated partial thromboplastin time at 1.25 uM incubated for 7 mins; type: functional, cell-free
Plasma [13] = assay: Anticoagulant activity in pooled human plasma assessed as reduction in ellagic acid induced thrombin generation using Z-GGR-AMC as fluorogenic substrate at 4 uM by calibrated automated thrombogram analysis; type: functional, cell-free

Ac-YLRFR-NH2
inhibition [1]: inactive

CC[C@H](C)[C@@H]1NC(=O)[C@H](Cc2c[nH]cn2)NC(=O)[C@H](CCCCN)NC(=O)[C@H](Cc2ccccc2)NC(=O)[C@H](CCCNC(=N)N)NC(=O)[C@H](CC(C)C)NC(=O)[C@H](Cc2ccc(O)cc2)NC(=O)CSC[C@@H](C(N)=O)NC(=O)CNC(=O)CNC(=O)[C@H](CC(C)C)NC(=O)[C@H](CO)NC1=O ({CH2CO}-YLRFKHISLGGC-NH2; thioether N-12)
Ratio IC50 (Homo sapiens): 100
IC50 (Coagulation factor XII [2]): 0.311 µM
Activity (Plasma [3]): Active
Activity (Plasma [4]): Active
IC50 (Coagulation factor XII [5]): 0.234 µM
IC50 (Coagulation factor X): 17 µM
Activity (Plasma [6]): inactive
EC50 (Plasma [7]): 3.2 µM

CC(C)C[C@@H]1NC(=O)[C@H](CCC(N)=O)NC(=O)[C@H](CCCNC(=N)N)NC(=O)[C@@H]2CSCCC(=O)N3CN(CN(C3)C(=O)CCSC[C@H](NC(=O)[C@@H](N)CCCNC(=N)N)C(=O)N[C@@H](Cc3ccccc3)C(=O)N[C@@H](CCCNC(=N)N)C(=O)N[C@@H](CC(C)C)C(=O)N3CCC[C@H]3C(=O)N2)C(=O)CCSC[C@@H](C(=O)N[C@@H](CCCNC(=N)N)C(=O)O)NC(=O)[C@H](CCCNC(=N)N)NC1=O
IC50 (Coagulation factor XII [2]): 0.173 µM
IC50 (Coagulation factor XII [5]): 0.142 µM

CC(C)C[C@H](NC(=O)[C@H](C)NC(=O)[C@H](CO)NC(=O)[C@H](CCC(=O)O)NC(=O)[C@H](Cc1ccc(O)cc1)NC(=O)[C@H](CCCNC(=N)N)NC(=O)[C@@H]1CSCC(=O)N[C@@H](Cc2ccc(O)cc2)C(=O)N[C@@H](CC(C)C)C(=O)N[C@@H](CCCNC(=N)N)C(=O)N[C@@H](Cc2ccccc2)C(=O)N[C@@H]([C@@H](C)O)C(=O)N[C@@H](CC(C)C)C(=O)N1)C(=O)N[C@@H](CO)C(N)=O ({CH2CO}-YLRFTLCRYESALS-NH2; thioether N-7)
IC50 (Coagulation factor XII [2]): 0.673 µM
IC50 (Coagulation factor XII [5]): 0.372 µM
IC50 (Coagulation factor X): 2.2 µM

CC[C@H](C)[C@@H]1NC(=O)[C@H](CC(C)C)NC(=O)[C@H](Cc2ccc(O)cc2)NC(=O)CSC[C@@H](C(=O)N[C@H](C(=O)N[C@@H](CO)C(=O)N[C@@H](CCCNC(=N)N)C(=O)N[C@@H](CCCNC(=N)N)C(=O)N[C@@H](C)C(=O)N[C@@H](Cc2ccccc2)C(=O)N[C@@H](Cc2ccccc2)C(=O)N[C@H](C(=O)N[C@@H](CC(=O)O)C(=O)N[C@@H](CCC(N)=O)C(=O)N[C@@H](CO)C(N)=O)[C@@H](C)O)C(C)C)NC1=O ({CH2CO}-YLICVSRRAFFTDQS-NH2; thioether N-4)
IC50 (Coagulation factor XII [5]): > 100 µM
IC50 (Coagulation factor X): > 100 µM

CC(C)C[C@@H]1NC(=O)[C@H](Cc2ccc(O)cc2)NC(=O)CSC[C@@H](C(N)=O)NC(=O)CNC(=O)CNC(=O)[C@H](CCC(N)=O)NC(=O)[C@H](CC(N)=O)NC(=O)[C@H]([C@@H](C)O)NC(=O)[C@@H]2CCCN2C(=O)[C@H](CCCCN)NC(=O)[C@H](CC(C)C)NC(=O)[C@H](CCCNC(=N)N)NC1=O ({CH2CO}-YLRLKPTNQGGC-NH2; thioether N-12)
IC50 (Plasma kallikrein): > 100 µM
inhibition [8]: Dose-Dependent Effect
IC50 (Trypsin): 12 µM
IC50 (Coagulation factor XII [2]): 0.611 µM
Activity (Plasma [4]): Active
IC50 [9]: > 100 µM
IC50 (Coagulation factor VII): > 100 µM
IC50 (Coagulation factor XII [5]): 0.331 µM
IC50 (Coagulation factor X): > 100 µM
Stability [10]: Stable
IC50 (Plasminogen): > 100 µM
Activity (Plasma [6]): inactive
EC50 (Plasma [7]): 2.8 µM

CC(C)C[C@@H]1NC(=O)[C@H](Cc2ccc(O)cc2)NC(=O)CSC[C@@H](C(=O)N[C@@H](CCCNC(=N)N)C(=O)N[C@@H](CCCNC(=N)N)C(=O)N[C@@H](C)C(=O)N2CCC[C@H]2C(=O)N[C@@H](CC(N)=O)C(=O)N[C@@H](CO)C(N)=O)NC(=O)[C@H](CC(C)C)NC(=O)[C@H]([C@@H](C)O)NC(=O)[C@H](Cc2ccccc2)NC(=O)[C@H](CCCNC(=N)N)NC1=O ({CH2CO}-YLRFTLCRRAPNS-NH2; thioether N-7)
IC50 (Plasma kallikrein): 43 µM
IC50 (Trypsin): 61 µM
Ratio IC50 (Homo sapiens): 100
IC50 (Coagulation factor XII [2]): 0.157 µM
Activity (Plasma [3]): Active
Activity (Plasma [4]): Active
IC50 [9]: > 100 µM
IC50 (Coagulation factor VII): > 100 µM
IC50 (Coagulation factor XII [5]): 0.097 µM
IC50 (Coagulation factor X): 35 µM
IC50 (Plasminogen): 61 µM
EC50 (Plasma [7]): 1.4 µM

CC[C@H](C)[C@@H]1NC(=O)[C@H](C)NC(=O)[C@H](CCCCN)NC(=O)[C@H](Cc2ccccc2)NC(=O)[C@H](CCCNC(=N)N)NC(=O)[C@H](CC(C)C)NC(=O)[C@H](Cc2ccc(O)cc2)NC(=O)CSC[C@@H](C(N)=O)NC(=O)CNC(=O)CNC(=O)[C@H](CC(C)C)NC(=O)[C@H](CO)NC1=O ({CH2CO}-YLRFKAISLGGC-NH2; thioether N-12)
IC50 (Coagulation factor XII [5]): 0.18 µM
IC50 (Coagulation factor X): 41 µM

CC(C)C[C@@H]1NC(=O)[C@H](Cc2ccc(O)cc2)NC(=O)CSC[C@@H](C(N)=O)NC(=O)CNC(=O)CNC(=O)[C@H](CCCNC(=N)N)NC(=O)[C@H](CC(=O)O)NC(=O)[C@H](CCCCN)NC(=O)[C@@H]2CCCN2C(=O)[C@H](CCCNC(=N)N)NC(=O)[C@H](Cc2ccccc2)NC(=O)[C@@H](CCCNC(=N)N)NC1=O
inhibition [11]: inactive

CC(C)C[C@@H]1NC(=O)[C@H](Cc2ccc(O)cc2)NC(=O)CSC[C@@H](C(N)=O)NC(=O)CNC(=O)CNC(=O)[C@H](CCCNC(=N)N)NC(=O)[C@H](CC(=O)O)NC(=O)[C@H](CCCCN)NC(=O)[C@@H]2CCCN2C(=O)[C@H](CCCNC(=N)N)NC(=O)[C@H](Cc2ccccc2)NC(=O)[C@H](CCCNC(=N)N)NC1=O
IC50 (Plasma kallikrein): > 100 µM
inhibition [8]: Dose-Dependent Effect
IC50 (Trypsin): > 31 µM
Ratio IC50 (Homo sapiens): 100
IC50 (Coagulation factor XII [2]): 0.061 µM
Activity (Plasma [3]): Active
Activity (Plasma [4]): Active
IC50 [9]: > 100 µM
IC50 (Coagulation factor VII): > 100 µM
IC50 (Coagulation factor XII [5]): 0.062 µM
Activity (Plasma [12]): Active
Activity (Plasma [13]): Active
IC50 (Coagulation factor X): 59 µM
Stability [10]: Stable
IC50 (Plasminogen): > 100 µM
Activity (Plasma [6]): inactive
EC50 (Plasma [7]): 0.7 µM
